Reference: PMC5394417, “Investigating the molecular mechanism of positive and negative allosteric modulators in the calcium-sensing receptor dimer” (Scientific Reports, 2017)

Biological target: T1, HA-F821A CaSR mutant (Rattus norvegicus, UniProt P48442, F821A)
T1 construct: mGluR5 signal peptide (N); expressed in transfected cells; host or cells: HEK293T
T1 sequence (P48442 20-1079 F821A): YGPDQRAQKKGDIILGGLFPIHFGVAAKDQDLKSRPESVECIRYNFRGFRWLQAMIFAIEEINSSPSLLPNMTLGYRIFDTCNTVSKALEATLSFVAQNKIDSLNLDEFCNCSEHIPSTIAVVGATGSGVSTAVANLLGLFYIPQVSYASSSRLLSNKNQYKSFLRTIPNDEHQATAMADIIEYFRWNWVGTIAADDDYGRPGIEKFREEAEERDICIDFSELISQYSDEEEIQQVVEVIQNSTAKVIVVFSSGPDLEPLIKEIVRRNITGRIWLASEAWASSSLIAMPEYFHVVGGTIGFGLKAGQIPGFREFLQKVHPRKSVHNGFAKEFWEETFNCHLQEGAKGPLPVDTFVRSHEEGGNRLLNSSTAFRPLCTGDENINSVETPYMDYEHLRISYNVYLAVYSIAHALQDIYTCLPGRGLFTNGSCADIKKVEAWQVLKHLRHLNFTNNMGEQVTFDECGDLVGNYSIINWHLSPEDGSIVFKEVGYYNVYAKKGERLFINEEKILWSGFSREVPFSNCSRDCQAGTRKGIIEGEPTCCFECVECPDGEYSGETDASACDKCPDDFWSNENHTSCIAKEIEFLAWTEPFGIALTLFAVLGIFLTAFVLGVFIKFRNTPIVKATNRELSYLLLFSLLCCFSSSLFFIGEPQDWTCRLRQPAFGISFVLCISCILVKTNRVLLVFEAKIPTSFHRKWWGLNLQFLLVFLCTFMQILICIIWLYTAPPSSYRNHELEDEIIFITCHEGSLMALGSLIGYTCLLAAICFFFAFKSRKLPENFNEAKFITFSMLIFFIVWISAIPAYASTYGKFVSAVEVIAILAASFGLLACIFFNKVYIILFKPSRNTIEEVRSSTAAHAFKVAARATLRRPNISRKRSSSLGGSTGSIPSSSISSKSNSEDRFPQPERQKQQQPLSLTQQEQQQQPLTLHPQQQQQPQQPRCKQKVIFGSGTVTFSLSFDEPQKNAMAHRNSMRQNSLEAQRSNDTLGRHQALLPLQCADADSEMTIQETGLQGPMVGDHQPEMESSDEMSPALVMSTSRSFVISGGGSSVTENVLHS
Experiment: IP-One assay, HEK293T transiently transfected
Format: cell-based

EC50 (Ca^2+ alone): 2350 µM | pEC50 ± S.E.M. (Ca^2+ alone): 2.63 ± 0.02 | Max ± S.E.M. (Ca^2+ alone, normalized to maximum response of WT CaSR): 87 ± 4.3% | EC50 (Ca^2+ with 1 μM NPS R-568): 1920 µM | pEC50 ± S.E.M. (Ca^2+ with 1 μM NPS R-568): 2.72 ± 0.01 | Max ± S.E.M. (Ca^2+ with 1 μM NPS R-568, normalized to maximum response with Ca^2+ alone for the construct): 110 ± 14% | EC50 (Ca^2+ with 5 μM NPS 2143): 5720 µM | pEC50 ± S.E.M. (Ca^2+ with 5 μM NPS 2143): 2.25 ± 0.05 | Max ± S.E.M. (Ca^2+ with 5 μM NPS 2143, normalized to maximum response with Ca^2+ alone for the construct): 51 ± 8.0%
SMILES: [Ca+2] [Ca^2+]
